Source: patent publication US6291442A, “Pharmacological modulators of voltage-gated potassium ion channels” (The General Hospital Corporation, priority 1999, dated 2001)
Entries after “also recorded” stand apart in the source; their conditions may differ. Read-outs that look alike come from different tables or passages of the source.

Legend:
[1] = test system: Drosophila Shaker H4 potassium ion channels; test: Patch voltage clamp recording, time course of channel closure (deactivation); conditions: for Approximate Increase in Time Course of Closure: shaker h4 channel patch, 500 µM; for effect on the closing of the ion channel: FIG. 3 and 4; for Approximate Decrease in Time Course of Closure: test compound 0.5 mM, compared to closure in the absence of test compound
Text: Standard patch recording methods were used to record potassium channel currents from the transfected cells (Hamill, O. P., Marty, A., Neher, E., Sakmann, B., and Sigworth, F. J., Pfluegers Arch(1981), 391:85, the entire teachings of which are incorporated herein by reference). If expression was sufficiently high, the excised inside-out or excised outside-out recording configurations was used; otherwise the whole cell recording configuration was used. […] Standard extracellular saline was used in the recording pipette, and standard intracellular saline was perfused on the exposed side, or bath side, of the membrane. Test compounds were added to the intracellular saline at the concentration specified.
For recording the time course of channel activation and deactivation, voltage clamp steps were applied from a resting potential of -80 to -100 mV to an activation potential of between -60 and +60 mV; after these activating steps (lasting 5-100 ms in duration), the voltage was returned to a potential of between -120 and -60 mV to monitor the time course of closure, or de-activation, of the channels. Standard experimental solutions contained, in mM: 150 NaCl, 10 KCl, 3 CaCl2, 1 MgCl2, and 10 HEPES, at pH 7.4 in the pipette solution; and 160 KCl, 0.5 MgCl2, 1 EGTA, and 10 HEPES, at pH 7.4 in the bath solution. Solutions with Cd^2+ contained no EGTA.
In Table I, II and III, the time course of closure of Drosophila Shaker H4 potassium ion channels was measured in the presence of a test compound and compared to the time course of closure in the absence of a test compound.

[2] = test system: Drosophila Shaker H4 potassium ion channels; test: Application to intracellular (inside-out patch) versus extracellular (outside-out patch) side of the membrane; assay type: cell-based; conditions: inside-out versus outside-out excised patch
Experimental: Compounds were applied to the intracellular side of the cell membrane by adding the compound to the solution bathing the exposed face of an excised inside-out patch containing Drosophila Shaker H4 potassium ion channels. Application to the extracellular side of the membrane was performed by adding the compound to the solution bathing the exposed face of an excised outside-out patch containing Drosophila Shaker H4 potassium ion channels.

[3] = test system: Shaker class voltage-gated potassium ion channels
Experimental: At a depolarizing pulse of +60 mV, the steady state blockade of current caused by channel-blockers was measured as the current in the presence of the channel-blocker divided by the current in the absence of the channel-blocker.

[4] = inside-out excised patch voltage clamp

| Structure (SMILES) | Approximate Increase in Time Course of Closure [1] | Approximate Decrease in Time Course of Closure [1] | further results |
| --- | --- | --- | --- |
| CCOc1ccc(Nc2cc([N+](=O)[O-])ccc2C(=O)O)cc1 [N-(4-ethoxyphenyl)-4-nitro anthranilic acid] |  | 5-10 X | effect on the closing of the ion channel [1, 4]: speeds the closing of the ion channel; reduction in the maximal level of outward or inward current ([1]; inside-out excised patch voltage clamp, FIG. 4): < 20% |
| Cc1c(C)c(C)c(C(=O)c2ccccc2C(=O)O)c(C)c1C [2-(2,3,4,5,6-pentamethylbenzoyl) benzoic acid] |  | 2 X |  |
| COc1cccc(C(=O)c2cc(OC)ccc2C(=O)O)c1 [4-methoxy-2-(3-methoxy-benzoyl)-benzoic acid] |  | ≤ 2 X |  |
| CCCCN(CCCC)c1ccc(C(=O)c2ccccc2C(=O)O)c(O)c1 [2-(4-dibutylamino-2-hydroxybenzoyl) benzoic acid] |  | 6.4 X |  |
| CC(C(=O)O)c1ccc2c(c1)[nH]c1ccc(Cl)cc12 (centres unmarked) [Carprofen, reference compound] |  | 3.2 X |  |
| O=C(O)c1c(Cl)c(Cl)c(Cl)c(Cl)c1C(=O)c1ccccc1 [2-benzoyl-3,4,5,6-tetrachloro-benzoic] |  | ≥ 2 X |  |
| Cc1ccc(Cl)c(Nc2ccccc2C(=O)O)c1Cl [Meclofenamic acid, reference compound] |  | 2.5 X |  |
| Nc1cc(Cl)ccc1Nc1ccccc1C(=O)O [N-(2-amino-4-chlorophenyl) anthranilic acid] |  | 2.4 X |  |
| CC[N+](CC)(CC)CC [tetraethylammonium] |  |  | steady state blockade of current ([3]; tetraethylammonium 5 mM alone, depolarizing pulse +60 mV): 15%; steady state blockade of current ([3]; tetraethylammonium 5 mM in the presence of 10 mM 2-benzoylbenzoic acid, +60 mV): 16% |
| O=C(O)c1ccc([N+](=O)[O-])cc1Oc1cccc([N+](=O)[O-])c1 |  |  | effect on the maximal level of outward or inward current ([1]; inside-out excised patch voltage clamp, FIG. 3): little or no effect; effect on the closing of the ion channel [1, 4]: slows the closing of the ion channel |
| O=C(O)c1ccc(Br)cc1Oc1ccccc1 [4-bromo-2-(phenoxy) benzoic acid] |  | ≥ 2 X |  |

The next lines start with results.

| Approximate Increase in Time Course of Closure [1] | Structure (SMILES) | Approximate Decrease in Time Course of Closure [1] | further results |
| --- | --- | --- | --- |
| 2 X | Cc1ccc(C(=O)c2ccccc2C(=O)O)cc1 [2-(p-toluoyl)benzoic] |  |  |
| < 2 X | Cc1ccc(Sc2ccccc2C(=O)O)c(S(N)(=O)=O)c1 [2-sulfamide-4-methyl-2'-carboxydiphenyl sulfide] |  |  |
| 2.2 X | CC(C(=O)O)c1cccc(Oc2ccccc2)c1 (centres unmarked) [fenoprofen, reference compound] |  |  |
| < 2 X | COc1cccc(Oc2c(OC)cccc2C(=O)O)c1 [2-(3-methoxyphenoxy)-3-methoxybenzoic acid] |  |  |
| 2 X | O=C(O)c1ccccc1C(=O)c1ccc(Cl)c([N+](=O)[O-])c1 [2-(4-chloro-3-nitrobenzoyl)benzoic acid] |  |  |
| 2.4 X | O=C(O)c1cccnc1Nc1cccc(C(F)(F)F)c1 [niflumic acid, reference compound] |  |  |
| 2.5 X | O=C(O)c1ccccc1C(=O)c1ccccc1 [2-benzoylbenzoic acid] |  | side of the cell membrane from which the compound is effective [2]: effective from only one side of the membrane; also recorded: effective only from the intracellular side of the cell membrane |
| 3-4 X | O=C(O)c1ccccc1Oc1cccc([N+](=O)[O-])c1 [2-(3-nitrophenoxy)benzoic acid] |  |  |
| ≥ 2 X | Nc1ccc(C(=O)c2ccccc2C(=O)O)cc1[N+](=O)[O-] [2-(4-amino-3-nitro-benzoyl)benzoic acid] |  |  |
| 2 X | Nc1cc(C(=O)c2ccccc2C(=O)O)ccc1Cl [2-(3-amino-4-chlorobenzoyl)benzoic acid] |  |  |
| 2.2 X | O=C(O)c1ccccc1[S+]([O-])c1ccccc1 (centres unmarked) [1-carboxydiphenyl sulfoxide] |  |  |
| 9 X | Nc1cccc(C(=O)O)c1Oc1ccc(Cl)cc1 [2-(4-chlorophenoxy)-3-aminobenzoic acid] |  |  |
| 2 X | O=C(O)c1ccccc1C(=O)c1ccc(Cl)cc1 [2-(4-chlorobenzoyl)benzoic acid] |  |  |
| 2 X | Nc1ccccc1C(=O)c1ccccc1C(=O)O [2-aminobenzophenone-2-carboxylic] |  |  |
| 1.5 X | COc1ccc(Oc2c(C(=O)O)cccc2[N+](=O)[O-])cc1 [2-(4-methoxyphenoxy)-3-nitrobenzoic acid] |  |  |
| 2 X | CC(=O)Nc1ccc(C=Cc2ccc([N+](=O)[O-])cc2S(=O)(=O)O)c(S(=O)(=O)O)c1 [4-nitro-4'-acetamide-2,2'-disulfonate stilbene] |  |  |
